Measurements published in PubChem BioAssay (NCI).
Values joined by “and” are separate entries in the source; they are usually repeats but may differ in a detail not shown here. Identical values can stand only once.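 96-well plates; 48 h exposure; 5 concentrations. Endpoints by linear interpolation between flanking doses. Not reached: highest tested concentration assigned. At the GI50, growth is halved. Definition used: TGI = concentration required for complete inhibition of growth.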

Assays:
Assay in all cases: NCI tumour cell line growth inhibition, 48 h
RXF-631 renal = tested on: RXF-631 renal
M19-MEL melanoma = tested on: M19-MEL melanoma
XF 498 CNS = tested on: XF 498 CNS
DMS 114 small cell lung = tested on: DMS 114 small cell lung
LXFL 529 NSCLC = tested on: LXFL 529 NSCLC
DMS 273 small cell lung = tested on: DMS 273 small cell lung
DLD-1 colon = tested on: DLD-1 colon
KM20L2 colon = tested on: KM20L2 colon
HOP-18 NSCLC = tested on: HOP-18 NSCLC
P388/ADR leukemia = tested on: P388/ADR leukemia
P388 leukemia = tested on: P388 leukemia

C1C[S][Ge]2([S]CCO1)[S]CCOCC[S]2
GI50 (RXF-631 renal): > 100 µM
TGI (RXF-631 renal): > 100 µM
GI50 (M19-MEL melanoma): > 100 µM
TGI (M19-MEL melanoma): > 100 µM
GI50 (XF 498 CNS): > 100 µM
TGI (XF 498 CNS): > 100 µM
GI50 (DMS 114 small cell lung): > 100 µM
TGI (DMS 114 small cell lung): > 100 µM
GI50 (LXFL 529 NSCLC): > 100 µM
TGI (LXFL 529 NSCLC): > 100 µM
GI50 (DMS 273 small cell lung): > 100 µM
TGI (DMS 273 small cell lung): > 100 µM
GI50 (DLD-1 colon): > 100 µM
TGI (DLD-1 colon): > 100 µM

COc1ccc(C(=O)C(C(=O)C(=O)Nc2ccc(Cl)c(Cl)c2)c2ccc(OC)cc2)cc1 (stereo not given)
TGI (KM20L2 colon): > 100 µM
TGI (M19-MEL melanoma): > 100 µM
TGI (XF 498 CNS): > 100 µM
TGI (DMS 114 small cell lung): > 100 µM
TGI (LXFL 529 NSCLC): > 100 µM
TGI (DMS 273 small cell lung): > 100 µM
TGI (DLD-1 colon): > 100 µM
TGI (HOP-18 NSCLC): > 100 µM

CC(C)(C)CC(C)(C)c1cc2c(O)c(c1)Cc1cc(C(C)(C)CC(C)(C)C)cc(c1O)Cc1cc(C(C)(C)CC(C)(C)C)cc(c1O)Cc1cc(C(C)(C)CC(C)(C)C)cc(c1O)Cc1cc(C(C)(C)CC(C)(C)C)cc(c1O)Cc1cc(C(C)(C)CC(C)(C)C)cc(c1O)C2
TGI (RXF-631 renal): > 100 µM
TGI (KM20L2 colon): > 100 µM
TGI (M19-MEL melanoma): > 100 µM
TGI (XF 498 CNS): > 100 µM
TGI (DMS 114 small cell lung): > 100 µM
TGI (LXFL 529 NSCLC): > 100 µM
TGI (DMS 273 small cell lung): > 100 µM
TGI (DLD-1 colon): > 100 µM

CN(N=O)C(=O)N[C@@H](C=O)[C@@H](O)[C@H](O)[C@H](O)CO
TGI (KM20L2 colon): > 750 µM
GI50 (M19-MEL melanoma): 619 µM
TGI (M19-MEL melanoma): 629 µM and > 750 µM
GI50 (XF 498 CNS): > 750 µM
TGI (XF 498 CNS): > 750 µM
GI50 (DMS 114 small cell lung): > 750 µM
TGI (DMS 114 small cell lung): 599 µM and > 750 µM
TGI (LXFL 529 NSCLC): > 750 µM
GI50 (DMS 273 small cell lung): > 750 µM
TGI (DMS 273 small cell lung): 575 µM and > 750 µM
GI50 (DLD-1 colon): > 750 µM
TGI (DLD-1 colon): > 750 µM
GI50 (HOP-18 NSCLC): > 750 µM
TGI (HOP-18 NSCLC): 216 µM and > 750 µM
TGI (P388/ADR leukemia): 635 µM
TGI (P388 leukemia): > 504 µM

O=c1cccccc1NCCCCCCNc1cccccc1=O
TGI (RXF-631 renal): > 100 µM
TGI (KM20L2 colon): > 100 µM
TGI (M19-MEL melanoma): > 100 µM
TGI (DMS 114 small cell lung): > 100 µM
TGI (LXFL 529 NSCLC): > 100 µM
TGI (DMS 273 small cell lung): > 100 µM
TGI (DLD-1 colon): > 100 µM
TGI (HOP-18 NSCLC): > 100 µM

O=C1N(c2ccccc2)C(=O)C2(SC=NN2Cc2ccccc2)N1c1ccccc1 (stereo not given)
TGI (KM20L2 colon): > 100 µM
TGI (M19-MEL melanoma): > 100 µM
TGI (XF 498 CNS): > 100 µM
TGI (DMS 114 small cell lung): > 100 µM
TGI (LXFL 529 NSCLC): > 100 µM
TGI (DLD-1 colon): > 100 µM
TGI (HOP-18 NSCLC): > 100 µM

O=C([O][Hg][CH2]C1COC([CH2][Hg][O]C(=O)c2ccccc2)CO1)c1ccccc1 (stereo not given)
GI50 (KM20L2 colon): 17.9 µM
TGI (KM20L2 colon): 32.7 µM
GI50 (M19-MEL melanoma): 9.67 µM
TGI (M19-MEL melanoma): 22.9 µM
GI50 (XF 498 CNS): 17.7 µM
TGI (XF 498 CNS): 31.6 µM
GI50 (DMS 114 small cell lung): 15 µM
TGI (DMS 114 small cell lung): 28.8 µM
GI50 (LXFL 529 NSCLC): 1.53 µM
TGI (LXFL 529 NSCLC): 2.86 µM
GI50 (DMS 273 small cell lung): 4.51 µM
TGI (DMS 273 small cell lung): 9.83 µM
GI50 (DLD-1 colon): 2.59 µM
TGI (DLD-1 colon): 7.25 µM
GI50 (HOP-18 NSCLC): 10.8 µM
TGI (HOP-18 NSCLC): 23.5 µM

CCOC(=O)C1=C(O)CSC1=Nc1ccccc1
TGI (RXF-631 renal): > 100 µM
TGI (KM20L2 colon): > 100 µM
TGI (M19-MEL melanoma): > 100 µM
TGI (LXFL 529 NSCLC): > 100 µM
TGI (DMS 273 small cell lung): > 100 µM
TGI (DLD-1 colon): > 100 µM

CC/C(=C(/CC)c1ccc([O-])cc1)c1ccc([O-])cc1.CC/C(=C(\CC)c1ccc([O-])cc1)c1ccc([O-])cc1.O=C([CH-]C(=O)c1ccccc1)c1ccccc1.O=C([CH-]C(=O)c1ccccc1)c1ccccc1.O=C([CH-]C(=O)c1ccccc1)c1ccccc1.O=C([CH-]C(=O)c1ccccc1)c1ccccc1.[Ti+4].[Ti+4]
GI50 (KM20L2 colon): 29.5 µM
TGI (KM20L2 colon): 77.8 µM
GI50 (DMS 273 small cell lung): 28.7 µM
TGI (DMS 273 small cell lung): > 100 µM
GI50 (DLD-1 colon): 19.8 µM
TGI (DLD-1 colon): 53.1 µM
GI50 (HOP-18 NSCLC): 83.4 µM
TGI (HOP-18 NSCLC): > 100 µM

O=C1OCCC1C(O)C1c2ccccc2-c2ccccc21 (stereo not given)
TGI (M19-MEL melanoma): > 100 µM
TGI (XF 498 CNS): > 100 µM
TGI (DMS 114 small cell lung): > 100 µM
TGI (LXFL 529 NSCLC): > 100 µM
TGI (DLD-1 colon): > 100 µM

CC1(C)CCc2cc3c(cc2O1)OCC1c2cc4c(cc2OC31)OCO4 (stereo not given)
TGI (RXF-631 renal): > 100 µM
TGI (KM20L2 colon): > 100 µM
TGI (M19-MEL melanoma): > 100 µM
TGI (XF 498 CNS): > 100 µM
TGI (DMS 114 small cell lung): > 100 µM
TGI (LXFL 529 NSCLC): > 100 µM
TGI (DLD-1 colon): > 100 µM
TGI (HOP-18 NSCLC): > 100 µM

O=C(c1cc2ccccc2o1)N(Cc1ccccc1)c1ccccc1
TGI (RXF-631 renal): > 100 µM
TGI (KM20L2 colon): 35.9 µM
TGI (M19-MEL melanoma): 51.4 µM
TGI (XF 498 CNS): 41.8 µM
TGI (DMS 114 small cell lung): 44.2 µM
TGI (LXFL 529 NSCLC): > 100 µM
TGI (DMS 273 small cell lung): > 100 µM
TGI (DLD-1 colon): 56.6 µM
TGI (HOP-18 NSCLC): 65.9 µM

CC(=O)c1cccc(NC(=O)C(=O)C(C2OC(=O)c3ccccc32)[N+](=O)[O-])c1 (stereo not given)
TGI (RXF-631 renal): > 100 µM
TGI (KM20L2 colon): > 100 µM
TGI (M19-MEL melanoma): > 100 µM
TGI (XF 498 CNS): > 100 µM
TGI (DMS 114 small cell lung): > 100 µM
TGI (LXFL 529 NSCLC): > 100 µM
TGI (DLD-1 colon): > 100 µM

Cc1c(C(=O)C/C(=N/NC(=O)C[n+]2ccccc2)C(=O)Nc2ccccc2)[n+](=O)c2ccccc2n1O
TGI (RXF-631 renal): > 100 µM
TGI (KM20L2 colon): > 100 µM
TGI (M19-MEL melanoma): > 100 µM
TGI (XF 498 CNS): > 100 µM
TGI (DMS 114 small cell lung): > 100 µM
TGI (LXFL 529 NSCLC): > 100 µM
TGI (DMS 273 small cell lung): > 100 µM
TGI (DLD-1 colon): > 100 µM
TGI (HOP-18 NSCLC): > 100 µM

COc1c(NC(C)=O)cc(C)cc1NC(C)=O
TGI (M19-MEL melanoma): > 100 µM
TGI (XF 498 CNS): > 100 µM
TGI (DMS 114 small cell lung): > 100 µM
TGI (DMS 273 small cell lung): > 100 µM
TGI (DLD-1 colon): > 100 µM

CC(=O)O[C@]1(C)OC(=O)[C@@H](C)N1[N+](=O)[O-]
TGI (KM20L2 colon): > 100 µM
TGI (M19-MEL melanoma): > 100 µM
TGI (DMS 114 small cell lung): > 100 µM
TGI (LXFL 529 NSCLC): > 100 µM
TGI (DMS 273 small cell lung): > 100 µM
TGI (DLD-1 colon): > 100 µM
TGI (HOP-18 NSCLC): > 100 µM

COc1ccc2c(c1)[n+]([O-])c(-c1ccccc1)c(N)[n+]2[O-]
TGI (KM20L2 colon): > 100 µM
TGI (M19-MEL melanoma): > 100 µM
TGI (XF 498 CNS): 82.6 µM
TGI (DMS 114 small cell lung): 79.2 µM
TGI (LXFL 529 NSCLC): 98.7 µM
TGI (DMS 273 small cell lung): > 100 µM
TGI (DLD-1 colon): > 100 µM
TGI (HOP-18 NSCLC): 97 µM

COC(=O)C1=C(C(=O)OC)C23CC1C1C(C(=O)OC)=C(C(=O)OC)C12C1C=CC3C2C(=O)OC(=O)C21 (stereo not given)
TGI (RXF-631 renal): > 100 µM
TGI (KM20L2 colon): > 100 µM
TGI (M19-MEL melanoma): > 100 µM
TGI (XF 498 CNS): > 100 µM
TGI (DMS 114 small cell lung): 80.3 µM
TGI (LXFL 529 NSCLC): > 100 µM
TGI (DMS 273 small cell lung): > 100 µM
TGI (DLD-1 colon): > 100 µM

O=P(NC12CC3CC(CC(C3)C1)C2)(N1CC1)N1CC1
TGI (KM20L2 colon): > 100 µM
TGI (M19-MEL melanoma): > 100 µM
TGI (DMS 114 small cell lung): > 100 µM
TGI (LXFL 529 NSCLC): > 100 µM
TGI (DMS 273 small cell lung): > 100 µM
TGI (DLD-1 colon): > 100 µM
TGI (HOP-18 NSCLC): > 100 µM

O=C1c2ccccc2C(=O)c2c(NCCNCCO)ccc(O)c21
TGI (KM20L2 colon): 12.3 µM
TGI (M19-MEL melanoma): 12.4 µM
TGI (XF 498 CNS): 18.8 µM
TGI (DMS 114 small cell lung): 17.4 µM
TGI (LXFL 529 NSCLC): 15.5 µM
TGI (DMS 273 small cell lung): 10.7 µM
TGI (DLD-1 colon): 15.6 µM
TGI (HOP-18 NSCLC): 21.4 µM

CN[C@@H](C)[C@@H](N)c1ccccc1
TGI (RXF-631 renal): > 100 µM
TGI (LXFL 529 NSCLC): > 100 µM
TGI (DMS 273 small cell lung): > 100 µM
TGI (DLD-1 colon): > 100 µM
TGI (HOP-18 NSCLC): > 100 µM

C[C@]12CCc3nonc3C1CC[C@@H]1C2CC[C@]2(C)NC(=O)CCC12 (stereo not given in full)
TGI (RXF-631 renal): > 100 µM
TGI (KM20L2 colon): > 100 µM
TGI (M19-MEL melanoma): > 100 µM
TGI (XF 498 CNS): > 100 µM
TGI (LXFL 529 NSCLC): > 100 µM
TGI (DMS 273 small cell lung): > 100 µM
TGI (HOP-18 NSCLC): > 100 µM

O=c1c2ccccc2n2n1CC(O)C2 (stereo not given)
TGI (KM20L2 colon): > 100 µM
TGI (M19-MEL melanoma): > 100 µM
TGI (XF 498 CNS): > 100 µM
TGI (DMS 273 small cell lung): > 100 µM
TGI (DLD-1 colon): > 100 µM
TGI (HOP-18 NSCLC): > 100 µM
